In the NIST ThermoML archive (doi:10.1007/s10765-009-0593-3):
± gives the expanded uncertainty stated by the source.

Test: xn = mol fraction of the nth substance listed
Settings: 101 kPa, Liquid; for speed of sound: Pulse-echo method

CCCOCC(C)OCC(C)O (stereo not given) [1-(1-methyl-2-propoxyethoxy)-2-propanol] + CCCCN
Settings | mass density, 288.15 K [kg/m3] | mass density, 293.15 K [kg/m3] | mass density, 298.15 K [kg/m3] | mass density, 303.15 K [kg/m3] | mass density, 308.15 K [kg/m3] | speed of sound, 288.15 K [m/s] | speed of sound, 293.15 K [m/s] | speed of sound, 298.15 K [m/s] | speed of sound, 303.15 K [m/s] | speed of sound, 308.15 K [m/s]
x1 = 0.1119 | 781.657 ± 0.5 | 776.972 ± 0.51 | 772.263 ± 0.51 | 767.527 ± 0.52 | 762.757 ± 0.53 | 1299.1 ± 0.83 | 1277.8 ± 0.82 | 1256.7 ± 0.82 | 1235.5 ± 0.81 | 1214.2 ± 0.81
x1 = 0.1625 | 797.6 ± 0.48 | 792.951 ± 0.48 | 788.269 ± 0.49 | 783.562 ± 0.5 | 778.83 ± 0.5 | 1301.8 ± 0.83 | 1281 ± 0.83 | 1260.2 ± 0.82 | 1239.5 ± 0.81 | 1218.7 ± 0.81
x1 = 0.2153 | 812.62 ± 0.45 | 807.989 ± 0.46 | 803.334 ± 0.47 | 798.647 ± 0.47 | 793.946 ± 0.48 | 1304.3 ± 0.83 | 1283.9 ± 0.83 | 1263.4 ± 0.82 | 1243.2 ± 0.81 | 1222.8 ± 0.81
x1 = 0.2414 | 819.423 ± 0.44 | 814.802 ± 0.45 | 810.159 ± 0.46 | 805.481 ± 0.46 | 800.782 ± 0.47 | 1305.4 ± 0.83 | 1285.2 ± 0.83 | 1264.8 ± 0.82 | 1244.8 ± 0.81 | 1224.6 ± 0.81
x1 = 0.3043 | 834.258 ± 0.42 | 829.657 ± 0.43 | 825.032 ± 0.43 | 820.381 ± 0.44 | 815.702 ± 0.45 | 1307.7 ± 0.83 | 1287.9 ± 0.83 | 1267.8 ± 0.82 | 1248.3 ± 0.81 | 1228.4 ± 0.81
x1 = 0.35 | 843.808 ± 0.41 | 839.22 ± 0.41 | 834.611 ± 0.42 | 829.962 ± 0.43 | 825.299 ± 0.43 | 1309.1 ± 0.83 | 1289.5 ± 0.83 | 1269.7 ± 0.82 | 1250.3 ± 0.82 | 1230.7 ± 0.81
x1 = 0.4162 | 856.225 ± 0.39 | 851.642 ± 0.39 | 847.04 ± 0.4 | 842.409 ± 0.41 | 837.754 ± 0.41 | 1310.7 ± 0.83 | 1291.4 ± 0.83 | 1271.9 ± 0.82 | 1252.8 ± 0.82 | 1233.4 ± 0.81
x1 = 0.4519 | 862.336 ± 0.38 | 857.764 ± 0.38 | 853.179 ± 0.39 | 848.559 ± 0.4 | 843.907 ± 0.41 | 1311.3 ± 0.83 | 1292.2 ± 0.83 | 1272.8 ± 0.82 | 1253.8 ± 0.82 | 1234.6 ± 0.81
x1 = 0.4946 | 869.26 ± 0.37 | 864.701 ± 0.37 | 860.118 ± 0.38 | 855.511 ± 0.39 | 850.865 ± 0.39 | 1311.9 ± 0.83 | 1292.9 ± 0.83 | 1273.7 ± 0.82 | 1254.8 ± 0.82 | 1235.7 ± 0.81
x1 = 0.547 | 877.184 ± 0.35 | 872.638 ± 0.36 | 868.071 ± 0.37 | 863.48 ± 0.38 | 858.867 ± 0.38 | 1312.4 ± 0.83 | 1293.5 ± 0.83 | 1274.5 ± 0.82 | 1255.8 ± 0.82 | 1236.8 ± 0.81
x1 = 0.5938 | 883.779 ± 0.34 | 879.25 ± 0.35 | 874.697 ± 0.36 | 870.123 ± 0.37 | 865.527 ± 0.37 | 1312.6 ± 0.83 | 1293.8 ± 0.83 | 1275 ± 0.82 | 1256.3 ± 0.82 | 1237.5 ± 0.81
x1 = 0.6567 | 891.947 ± 0.33 | 887.44 ± 0.34 | 882.917 ± 0.35 | 878.364 ± 0.35 | 873.793 ± 0.36 | 1312.5 ± 0.83 | 1293.9 ± 0.83 | 1275.2 ± 0.82 | 1256.6 ± 0.82 | 1237.9 ± 0.81
x1 = 0.6997 | 897.047 ± 0.33 | 892.555 ± 0.33 | 888.041 ± 0.34 | 883.505 ± 0.35 | 878.95 ± 0.35 | 1312.2 ± 0.83 | 1293.7 ± 0.83 | 1275.1 ± 0.82 | 1256.5 ± 0.82 | 1238 ± 0.81
x1 = 0.7665 | 904.096 ± 0.32 | 899.635 ± 0.32 | 895.15 ± 0.33 | 890.644 ± 0.34 | 886.119 ± 0.34 | 1311.5 ± 0.83 | 1293 ± 0.83 | 1274.6 ± 0.82 | 1256.1 ± 0.82 | 1237.7 ± 0.81
x1 = 0.8068 | 907.864 ± 0.31 | 903.41 ± 0.32 | 898.94 ± 0.32 | 894.449 ± 0.33 | 889.942 ± 0.34 | 1310.8 ± 0.83 | 1292.3 ± 0.83 | 1274.1 ± 0.82 | 1255.7 ± 0.82 | 1237.4 ± 0.81
x1 = 0.8466 | 911.283 ± 0.3 | 906.844 ± 0.31 | 902.376 ± 0.32 | 897.903 ± 0.32 | 893.412 ± 0.33 | 1310 ± 0.83 | 1291.6 ± 0.83 | 1273.4 ± 0.82 | 1255.2 ± 0.82 | 1236.9 ± 0.81
x1 = 0.9038 | 915.886 ± 0.3 | 911.457 ± 0.3 | 906.999 ± 0.31 | 902.546 ± 0.32 | 898.065 ± 0.32 | 1308.6 ± 0.83 | 1290.3 ± 0.83 | 1272.1 ± 0.82 | 1254.2 ± 0.82 | 1236.1 ± 0.81
x1 = 0.9528 | 919.898 ± 0.29 | 915.486 ± 0.3 | 911.061 ± 0.3 | 906.607 ± 0.31 | 902.137 ± 0.32 | 1307.2 ± 0.83 | 1288.9 ± 0.83 | 1270.9 ± 0.82 | 1253.1 ± 0.82 | 1235.2 ± 0.81
